Broadly, the CC50 is the concentration giving 50% cytotoxicity. A lower CC50 goes with harm at low concentration.

Data on 59 molecules can be found in publication PMC6792352, “Limited Chemical Structural Diversity Found to Modulate Thyroid Hormone Receptor in the Tox21 Chemical Library” (Environmental Health Perspectives, 2019).

The nature of the data set: in vitro. The note with it: rat, gh3-tre-luc cells.

Where a name gives a salt, the structure may show the parent alone. Residues, ends and D or L forms follow the SMILES beside them.

As for `CC(=O)Oc1cc(C(C)C)c(OCCN(C)C)cc1C` [Moxisylyte hydrochloride], where the note is “AC50 (uM) modified / 1000”, the CC50 at 24 h was over 20 µM.
The same measure, in the same setting: in the case of `CC(C)(C)c1cc(CCC(=O)NN)cc(C(C)(C)C)c1O` [3-[3,5-DI(tert-butyl)-4-hydroxyphenyl]propanohydrazide] it was over 90 µM.
The same measure, in the same setting: in the case of `CC(C)c1cccc(C(C)C)c1` [1,3-Diisopropylbenzene] it was over 90 µM.
`CC(Cl)(Cl)C(=O)O` [Dalapon-sodium] showed a CC50 at 24 h (AC50 (uM) modified / 1000, Tox21_110001=Tox21_201112, viability, 1 nM T3 present, 24 h) of over 90 µM.
With `CCC(=O)c1ccc(O)cc1` [Paroxypropione], the CC50 at 24 h (AC50 (uM) modified / 1000) was over 50 µM.
Same read-out and setting: in the case of `Nc1c2c(nc3ccccc13)CCCC2O` (stereo not shown) [Hydroxytacrine maleate] it was over 50 µM; in that of `O=[N+]([O-])c1nccn1CO[C@@H](CO)[C@H](O)CO` [Doranidazole], over 50 µM.
On the same count and under the same terms, then `CN1C(=O)C(O)N=C(c2ccccc2)c2cc(Cl)ccc21` (stereo not shown) [Temazepam], with over 90 µM.
As to `CC[C@H](C)[C@@H](C(=O)O)n1sc2ccccc2c1=O` [(2S,3S)-3-Methyl-2-(3-oxo-1,2-benzothiazol-2(3H)-yl)pentanoic acid], where the note is “AC50 (uM) modified / 1000”, the CC50 at 24 h was over 90 µM.
In the case of `CCCCCCCCCCCCI` [1-Iodododecane], the CC50 at 24 h (AC50 (uM) modified / 1000) was over 90 µM.
Same read-out and setting: then `C[N+](C)=CCl` [N-(Chloromethylidene)-N-methylmethanaminium chloride], with over 90 µM; and `CC(=O)SC[C@@H](C)C(=O)N1CCC[C@H]1C(=O)N[C@@H](Cc1ccccc1)C(=O)O` [Alacepril], with over 50 µM.
In the case of `CC/C(=C(/CC)c1ccc(OP(=O)(O)O)cc1)c1ccc(OP(=O)(O)O)cc1` [Diethylstilbestrol diphosphate], the CC50 at 24 h (AC50 (uM) modified / 1000) was over 50 µM.
The molecule `C=N[C@@H](C(=O)N[C@@H]1C(=O)N2[C@@H]1SC(C)(C)[C@@H]2C(=O)O)c1ccccc1` [Metampicillin sodium] came in with a CC50 at 24 h (AC50 (uM) modified / 1000) of over 50 µM.
The molecule `Clc1ccccc1CN1CCc2sccc2C1` [Ticlopidine] came in with a CC50 at 24 h (AC50 (uM) modified / 1000) of 21.6 µM.
Still for that read-out and setting: in the case of `COCCCOCCCOC` [Dipropylene glycol dimethyl ether] it was over 90 µM.
On the same count and under the same terms, in the case of `NC(=O)COCCN1CCN(C(c2ccccc2)c2ccc(Cl)cc2)CC1` (stereo not shown) [Cetirizine amide dihydrochloride] it was 21.7 µM.
For the molecule `Nc1ccccc1C(=O)Oc1ccc2ccccc2c1` [Naphthalen-2-yl 2-aminobenzoate], the CC50 at 24 h (AC50 (uM) modified / 1000, Tox21_110001=Tox21_302560, viability, 1 nM T3 present, 24 h) was over 90 µM.
With `O=[N+]([O-])c1ccccc1O` [2-Nitrophenol], the CC50 at 24 h (AC50 (uM) modified / 1000, Tox21_110001=Tox21_201442, viability, 1 nM T3 present, 24 h) is over 90 µM.
As to `O=C1CCCN1C1CCCCC1` [1-Cyclohexylpyrrolidin-2-one], the CC50 at 24 h (AC50 (uM) modified / 1000) was over 90 µM.
For the molecule `Nc1ccccc1C(=O)O` [Anthranilic acid], the CC50 at 24 h by setting is: (AC50 (uM) modified / 1000, Tox21_110001=Tox21_111095, viability, 1 nM T3 present, 24 h) over 50 µM; (AC50 (uM) modified / 1000, Tox21_110001=Tox21_200703, viability, 1 nM T3 present, 24 h) over 90 µM.
Consider `N#Cc1ccccn1` [2-Pyridinecarbonitrile], for which the CC50 at 24 h (AC50 (uM) modified / 1000) was over 100 µM.
Turning to `CCCCCCCCSC(=O)Oc1cc(Cl)nnc1-c1ccccc1` [Pyridate], the CC50 at 24 h (AC50 (uM) modified / 1000) was over 90 µM.
Molecule `CC1CN1` (stereo not shown) [Propyleneimine] returned a CC50 at 24 h (AC50 (uM) modified / 1000) of over 90 µM.
In the case of `CCCCCCCCCCCCCCCC(=O)OCCC1CCN(CCCN2c3ccccc3Sc3ccc(S(=O)(=O)N(C)C)cc32)CC1` [Pipothiazine palmitate], for the setting “AC50 (uM) modified / 1000”, the CC50 at 24 h was over 50 µM.
On the same count and under the same terms, then `N#Cc1c2ccccc2cc2ccccc12` [9-Cyanoanthracene], with over 90 µM; and `CCOc1ccccc1OCCN[C@H](C)Cc1ccc(OC)c(S(N)(=O)=O)c1` [Tamsulosin hydrochloride], with over 50 µM.
Still for that read-out and setting: then `Nc1nc2c(ncn2COCCO)c(=O)[nH]1` [Acyclovir], with over 20 µM.
For the molecule `CCCCCl` [1-Chlorobutane], the CC50 at 24 h was over 50 µM (AC50 (uM) modified / 1000, Tox21_110001=Tox21_111072, viability, 1 nM T3 present, 24 h) and over 90 µM (AC50 (uM) modified / 1000, Tox21_110001=Tox21_200865, viability, 1 nM T3 present, 24 h).
With `Clc1ccc(C2(Cn3cncn3)CC(Br)CO2)c(Cl)c1` (stereo not shown) [Bromuconazole], the CC50 at 24 h (AC50 (uM) modified / 1000) was over 90 µM.
On the same count and under the same terms, then `CCCN1CCC[C@@H]2Cc3n[nH]cc3C[C@H]21` [(-)-Quinpirole hydrochloride], with over 50 µM.
On the same count and under the same terms, in the case of `CC(CC=O)c1ccccc1` (stereo not shown) [3-Phenylbutyraldehyde] it was over 90 µM; in that of `S=C(SSSSSSC(=S)N1CCCCC1)N1CCCCC1` [Bis(1-piperidinylthioxomethyl)hexasulfide], 0.0827 µM; in that of `CN1C[C@@H](NS(=O)(=O)N(C)C)C[C@@H]2c3cccc4c3c(cn4C)C[C@H]21` [Mesulergine], 22.3 µM.
Take `O=S(=O)(O)c1ccc(O)cc1` [Sodium 4-hydroxybenzenesulfonate]: the CC50 at 24 h (AC50 (uM) modified / 1000) is over 90 µM.
As for `COC(=O)c1ccc(C)cc1` [Methyl 4-methylbenzoate], the CC50 at 24 h (AC50 (uM) modified / 1000) is over 90 µM.
In turn, `COc1ccc2c(c1OC)C(=O)O[C@@H]2[C@H]1c2c(cc3c(c2OC)OCO3)CCN1C` [Noscapine] yielded a CC50 at 24 h (AC50 (uM) modified / 1000) of 15 µM.
Under “AC50 (uM) modified / 1000”, `O=C1OC(=O)c2cc(-c3ccc4c(c3)C(=O)OC4=O)ccc21` [5,5'-Bi-2-benzofuran-1,1',3,3'-tetrone] registered a CC50 at 24 h of over 90 µM.
The same measure, in the same setting: then `O=C(O)CCc1nc2ccccc2[nH]1` [Procodazole], with over 50 µM.
With `CS(=O)(=O)c1ccc(C(=O)C2C(=O)CCCC2=O)c(Cl)c1COCC(F)(F)F` [Tembotrione], where the note is “AC50 (uM) modified / 1000”, the CC50 at 24 h is over 90 µM.
The same measure, in the same setting: then `CCCc1ccc(C(=O)O)cc1` [4-Propylbenzoic acid], with over 50 µM.
Regarding `Clc1ccccc1-c1nnc(-c2ccccc2Cl)nn1` [Clofentezine], the CC50 at 24 h (AC50 (uM) modified / 1000) was over 90 µM.
Still for that read-out and setting: then `Nc1ccc(F)cc1` [4-Fluoroaniline], with over 100 µM; and `CC(C(=O)O)c1cccc(C(=O)c2ccccc2)c1` (stereo not shown) [Ketoprofen], with over 90 µM.
Same read-out and setting: in the case of `CCCCCCCCCCCCOCCOCCOCCOCCOCCOCCOCCOCCOCCO` [Polyoxyethylene (9) lauryl ether] it was 9.84 µM; in that of `COC(=O)[C@H](Cc1ccccc1)NC(=O)[C@@H](N)CC(=O)O` [Aspartame] (H-Asp-Phe-OMe), over 90 µM.
`CN/C(=N\[N+](=O)[O-])NCc1cnc(Cl)s1` [Clothianidin] had a CC50 at 24 h (AC50 (uM) modified / 1000) of over 90 µM.
Still for that read-out and setting: then `CCCc1ccc(OC)cc1` [4-Propylanisole], with over 90 µM.
Still for that read-out and setting: then `CC(C)(C)NC[C@H](O)COc1nsnc1N1CCOCC1` [(S)-Timolol], with over 50 µM.
Same read-out and setting: then `C=CCSSCCC` [Allyl propyl disulfide], with over 90 µM.
`CCCCCCCCCCC1CO1` (stereo not shown) [1,2-Epoxydodecane] displayed a half-maximal cytotoxic concentration (CC50) at 24 h (AC50 (uM) modified / 1000) of over 90 µM.
In turn, `OC[C@@H](O)[C@H]1O[C@@H]2O[C@@H](C(Cl)(Cl)Cl)O[C@@H]2[C@H]1O` [beta-Chloralose] showed a CC50 at 24 h (AC50 (uM) modified / 1000, Tox21_110001=Tox21_112370, viability, 1 nM T3 present, 24 h) of over 50 µM.
Where the note is “AC50 (uM) modified / 1000”, `CCCCCCCCCCCCCCC` [Pentadecane] showed a CC50 at 24 h of over 90 µM.
Same read-out and setting: in the case of `O=[N+]([O-])c1ccc(O)c2ncccc12` [Nitroxoline] it was 4.94 µM.
Same read-out and setting: then `Cn1cc(C2=C(c3cn(C4CCN(Cc5ccccn5)CC4)c4ccccc34)C(=O)NC2=O)c2ccccc21` [Enzastaurin], with over 50 µM; and `O=C(OCc1ccccc1)C(=O)OCc1ccccc1` [Dibenzyl oxalate], with over 90 µM.
For the setting “AC50 (uM) modified / 1000”, `CCN(CC)Cc1cc(Nc2ccnc3cc(Cl)ccc23)ccc1O` [Amodiaquin dihydrochloride dihydrate] displayed a CC50 at 24 h of 13.5 µM.
`O=C(c1ccc(OCCN2CCCCC2)cc1)c1c(-c2ccc(O)cc2)sc2cc(O)ccc12` [Raloxifene] returned a CC50 at 24 h (AC50 (uM) modified / 1000) of 3.84 µM.
On to `CC(N)CCCC(C)(C)O` (stereo not shown) [Heptaminol hydrochloride], for which, for the setting “AC50 (uM) modified / 1000”, the CC50 at 24 h is over 50 µM.
